Results on six molecules are retold here after patent US20060241038A1, “Therapeutic agent for Abeta related disorders” (Eisai Co., Ltd., priority 2005, published 2006).

Data set [1] has as its system Aβ fragments in rat fetal brain-derived nerve cell culture medium. Put plainly: MALDI-TOF/MS analysis of Aβ in rat fetal brain-derived nerve cell culture medium. Format: cell-based. To be noted: 3 days culture with various concentrations of test compound; normalized to internal standard Aβ12-28. The procedure:
In the same manner as shown in Example 3 above, brain cortex-derived nerve cells were prepared from Wistar rats at 18 days of embryonic age. The nerve cell suspension was diluted with a medium and seeded onto 10 cm polystyrene culture dishes pre-coated with poly-D-lysine (BIOCOAT® cell environments Poly-D-lysine cell culture dish, Becton Dickinson Labware) in a volume of 15 ml/dish so as to give an initial cell density of 3.5×10^5 cells/cm^2. After the seeded cells were cultured for 1 day in an incubator with 5% CO2, 95% air at 37° C., the medium was entirely replaced by fresh Neurobasal/B27/2ME, followed by culturing for an additional 3 days.
(§1) At 4 days after initiation of culturing, the test compounds synthesized in the preceding Examples, i.e., Compound A, Compound B (CAS#501907-79-5) or Compound C (CAS#670250-40-5) were added as follows. The medium was entirely removed and replaced by Neurobasal/B27/2ME free from 2-ME (i.e., Neurobasal/B27) in a volume of 11 ml/dish. The test compounds (Compounds A, B and C) in DMSO were diluted with Neurobasal/B27 to 100-fold of their final concentration and added in a volume of 110 μl/dish, followed by sufficient mixing. The final DMSO concentration was kept at 1% or below. The control group received DMSO alone.
(§2) After addition of the test compounds, the cells were cultured for 3 days and the whole volume of the medium was collected from each dish. The resulting medium was provided as a MALDI-TOF/MS sample.
Each sampled culture supernatant was collected in a 15 mL centrifuge tube and supplemented with 400 μL of a 25-fold concentrated solution of protease inhibitor cocktail Complete (Roche Diagnostics GmbH), followed by centrifugation at 4° C. at 3,000 rotations/minute for 5 minutes to sediment cell fragments. The resulting supernatant was transferred to another 15 mL centrifuge tube and supplemented with synthetic Aβ12-28 (Bachem) as an internal standard at a final concentration of 2 nM, followed by addition of 5 μg anti-Aβ monoclonal antibody (clone name: 4G8, Signet Laboratories, Inc). Subsequently, 5 μL of Protein G plus Protein A Agarose (Oncogene Research Products) was added after being blocked at 4° C. with 2% BSA and washed with TBS buffer. Further, 3-[(3-cholamidopropyl)dimethylammonio]-1-propanesulfonate (CHAPS; SIGMA) was added to each tube at a final concentration of 1%, followed by mixing at 4° C. for 4 to 8 hours.
The Protein G plus Protein A Agarose holding the immunoprecipitated Aβ fragments adsorbed thereto was collected from each tube by centrifugation at 4° C. at 3,000 rotations/minute for 5 minutes and transferred to a 1.5 mL microtube. The Protein G plus Protein A Agarose was washed twice with 500 μL of 140 mM NaCl, 0.1% N-Octyl Glucoside (NOG; Loche Diagnostics GmbH), 10 mM Tris-HCl, pH 8, once with 500 μL of Tris-HCl, 10 mM, pH 8, and then once with 500 μL of ion exchanged water. After washing with ion exchanged water, as much fluid as possible was removed from each tube and Aβs were eluted with 5 μL of 0.2% NOG, 2.4% trifluoroacetic acid (TFA; PIERCE) and 48.7% acetonitrile (HPLC grade, Wako Pure Chemical Industries, Ltd.). Independently of this, α-cyano-4-hydroxy-cinnamic acid (CHCA; BRUKER DALTONICS) was dissolved in 0.2% NOG, 0.1% TFA and 33% acetonitrile at a saturating concentration and supplemented with human insulin (Peptide Institute, Inc.) and angiotensin III (Peptide Institute, Inc.) as mass standards at fmal concentrations of 167 nM and 56 nM, respectively, for use as a matrix solution. Each Aβ eluate (0.5 μL) and the matrix solution (0.5 μL) were spotted at the same position on a sample plate for mass spectrometry and air-dried at room temperature, followed by analysis with a mass spectrometer Voyager DE (Applied Biosystems). All mass data detected were corrected for the mass of human insulin and angiotensin III (5807.6 and 931.1, respectively). […]

The subject of the next data set is Aβ40. The data set is described as follows: ELISA quantification of Aβ40 in rat fetal brain-derived nerve cell culture medium. To be noted: 3 days culture; effect stated as concentration-dependent (FIGS. 7-1 to 7-3). Format: cell-based. Here is the method: as §1, §2
(§3) A part of each medium collected in Example 7(3) aforementioned was used as an ELISA sample. Each sample was not diluted for Aβ42 measurement, while it was diluted 5-fold for Aβ40 measurement with a diluent attached to an ELISA kit before being subjected to ELISA.
(§4) Aβ ELISA was performed using a Human Amyloid beta (1-42) Assay Kit (#17711, IBL Co., Ltd.) and a Human Amyloid beta (1-40) Assay Kit (#17713, IBL Co., Ltd.) in accordance with the kit's recommended protocol (the procedures described in the attached document), provided that a calibration curve for each Aβ was prepared using beta-amyloid peptide 1-42 (rat) or beta-amyloid peptide 1-40 (rat) (Calbiochem. #171596[Aβ4 2] or #171593[Aβ4 0]). The results were expressed as percentages (% of Control) relative to the Aβ concentration in the medium from the control group (untreated group, Control).

The subject of the next data set is Aβ42. Put plainly: ELISA quantification of Aβ42 in rat fetal brain-derived nerve cell culture medium. Format: cell-based. To be noted: 3 days culture; effect stated as concentration-dependent (FIGS. 7-1 to 7-3). Here is the method: as §1, §2, §3, §4
The subject of a further data set is Aβ42 production. To be noted: reported in 2001 (refs 13, 14); cited from earlier work.
The nature of data set [2]: Circular dichroism (CD) analysis of each Aβ (secondary structure). Format: physicochemical. To be noted: each Aβ alone, 37° C., until 5 days. The procedure:
The solution was then dispensed in 10 to 30 μL aliquots into 500 μL polypropylene microtubes and stored at −80° C. until use.
The Aβ solutions in HFIP were evaporated using a centrifugal evaporator (Tomy Seiko Co., Ltd., CC-180 and ST-10) to remove HFIP and then dissolved in a solution of 10 mM HEPES containing 0.9% NaCl. Each of the resulting Aβ solution was incubated at 37° C. and measured for their CD at different time points.
The Aβ-containing solutions were injected into washed quartz cells with an optical path length of 1 or 2 mm and measured for their CD. Until measurement, the quartz cells were allowed to stand at 37° C., 100% humidity.

Data set [3] concerns the target T1, Aβ1-42 (Homo sapiens, UniProt P05067).
T1 construct: purchased Peptide Institute, Inc. 4349-v
Put plainly: CD measurement on a 1:3 mixture of Aβ1-42 and each Aβ (β-sheet structure formation in Aβ1-42). Format: biochemical. The following applies: 5 μM Aβ1-42 mixed with 15 μM of the Aβ (1:3). Here is the method:
The solution was then dispensed in 10 to 30 μL aliquots into 500 μL polypropylene microtubes and stored at −80° C. until use. The Aβ solutions in HFIP were evaporated using a centrifugal evaporator (Tomy Seiko Co., Ltd., CC-180 and ST-10) to remove HFIP and then dissolved in a solution of 10 mM HEPES containing 0.9% NaCl. Each of the resulting Aβ solution was incubated at 37° C. and measured for their CD at different time points. […] The Aβ-containing solutions were injected into washed quartz cells with an optical path length of 1 or 2 mm and measured for their CD. Until measurement, the quartz cells were allowed to stand at 37° C., 100% humidity.

A short description of data set [4]: Thioflavin T (ThT) analysis for aggregation ability of each Aβ. Format: physicochemical. The following applies: each Aβ alone, in 10 mM HEPES containing 0.9% NaCl, 37° C.; 10 μM ThT. The procedure: (§5) After addition of ThT (SIGMA) at a final concentration of 10 μM, each sample was transferred to a 96-well black plate (Corning) and stirred for 10 seconds, followed by measuring the fluorescence intensity for each sample. Using a fluorospectrometer (LJL Biosystems), the fluorescence intensity at a wavelength of 490 nm was measured with an excitation light of 450 nm wavelength.

For data set [5], the target named is T1, Aβ1-42. The data set is described as follows: ThT fluorescence of 1:3 mixtures of Aβ1-42 and each Aβ. Format: biochemical. The following applies: Aβ1-42 mixed with the Aβ at a ratio of 1:3. Here is the method: as §5

“Also recorded” adds a separate entry of the source.

For `N#Cc1ccc(NC(=O)NC(=N)Nc2ccc(Cl)cc2)cc1` [Compound B, N-{[(4-chlorophenyl)amino]iminomethyl}-N′-(4-cyanophenyl)urea], in data set [1], the “Aβ1-37 or Aβ11-37 production (MALDI-TOF/MS)” value (from here on “Aβ1-37 or Aβ11-37 production”) is “enhanced in a manner dependent on the concentration of Compound B”; the “Aβ1-38 or Aβ11-38 production (MALDI-TOF/MS)” value is reported as “enhanced in a manner dependent on the concentration of Compound B”; the “Aβ1-40 or Aβ11-40 production (MALDI-TOF/MS)” value (shortened to “Aβ1-40 or Aβ11-40 production”) is “inhibited in a manner dependent on the concentration of Compound B”; the “Aβ1-42 or Aβ11-42 (peak intensity, MALDI-TOF/MS)” value is listed as “no detectable change”. Further, the “Aβ40 production (ELISA, % of Control)” value with Aβ40 is recorded as “inhibited”. Moreover, the “Aβ42 production (ELISA, % of Control)” value with Aβ42 was “inhibited”.
Regarding `CC(C)Cc1ccc(C(C)C(=O)O)cc1` (stereo not shown) [ibuprofen], the “effect on Aβ42 production” value in the data set on Aβ42 production is given as “selectively inhibit Aβ42 production”.
Take `CNC(=O)n1ccc2cc(Oc3ccnc(NC(=O)N[C@H](CO)C(=O)N4CCCCC4)c3)ccc21` [Compound C, 5-{2-{3-[(1R)-1-hydroxymethyl-2-oxo-2-piperidin-1-ylethyl]ureido}pyridin-4-yloxy}-1H-indole-1-carboxylic acid methylamide]: in data set [1], the “Aβ1-37 or Aβ11-37 production” value was “enhanced in a manner dependent on the concentration of Compound C”; the “Aβ1-39 or Aβ11-39 production (MALDI-TOF/MS)” value is “enhanced in a manner dependent on the concentration of Compound C”; the “Aβ1-40 or Aβ11-40 production” value is “tended to be inhibited”; the “Aβ1-42 or Aβ11-42 (peak intensity, MALDI-TOF/MS)” value was “no detectable change”. In addition, in the data set with Aβ40, the “Aβ40 production (ELISA, % of Control)” value was “inhibited”. Also, the “Aβ42 production (ELISA, % of Control)” value with Aβ42 is “inhibited”.
As for “Aβ1-40: human-type Aβ1-40 (Peptide Institute, Inc., Prod. # 4307-v); amyloid β peptide”, in data set [2], the “likelihood of forming a β-sheet structure (CD), compared with Aβ1-42” value is on record as “less likely to form a β-sheet structure than Aβ1-42”. Besides, the “effect on β-sheet structure formation in Aβ1-42 (CD)” value with Aβ1-42 [3] was “weaker than that of Aβ1-37 or Aβ1-38”. In addition, in the data set with Aβ1-42 [3] (37° C., Aβ1-42+buffer showed β-sheet from 1 day), the “time after mixing with Aβ1-42 at which a CD spectrum indicative of β-sheet structure was detected” value is 2 days. The “fluorescence intensity of ThT (content of β-sheet structure) with incubation time” value in data set [4] was “no increase in the fluorescence intensity”. In addition, in the data set with Aβ1-42 [5], the “increase in ThT fluorescence intensity (β-sheet structure formation) of Aβ1-42 compared to Aβ1-42 alone” value is “the formation of β-sheet structure was inhibited; also recorded: the increase in the fluorescence intensity was inhibited”.
As to “Aβ1-42: human-type Aβ1-42 (Peptide Institute, Inc., Prod. # 4349-v); amyloid β peptide”, in data set [4], the “fluorescence intensity of ThT (content of β-sheet structure) with incubation time” value is recorded as “increased with increasing incubation time”.
Take `COc1cc(/C=C/C(=O)NCc2cccc(-c3ccccc3)c2)ccc1-n1cnc(C)c1` [Compound A, (E)-N-biphenyl-3-ylmethyl-3-[3-methoxy-4-(4-methylimidazol-1-yl)phenyl]acrylamide]: in data set [1], the “Aβ1-37 or Aβ11-37 production” value was “enhanced in a manner dependent on the concentration of Compound A”; the “Aβ1-38 or Aβ11-38 production (MALDI-TOF/MS)” value is recorded as “enhanced in a manner dependent on the concentration of Compound A”; the “Aβ1-40 or Aβ11-40 production” value is reported as “inhibited in a manner dependent on the concentration of Compound A”; the “Aβ1-42 or Aβ11-42 (peak intensity, MALDI-TOF/MS)” value was “no detectable change”. Moreover, the “Aβ40 production (ELISA, % of Control)” value with Aβ40 is reported as “inhibited”. The “Aβ42 production (ELISA, % of Control)” value in the data set on Aβ42 is recorded as “inhibited”.
